We go through three compounds from article PMC7015960, “Effect of rifampin and itraconazole on the pharmacokinetics of zanubrutinib (a Bruton's tyrosine kinase inhibitor) in Asian and non-Asian healthy subjects” (Cancer Chemotherapy and Pharmacology, 2019).

“And” between values parts separate entries of the source, which are not always exact repeats. Equal values may be shown once. Read-outs that look alike come from different tables or passages of the source.

Data set [1] is described as follows: Part A: single-dose PK of 320 mg zanubrutinib alone and with steady-state rifampin (CYP3A induction) in healthy subjects. In kind it is in vivo, human. The note with it: for CL/F / AUC(0-inf) / Cmax / half-life / Vd/F: geometric mean (CV%); for AUC(0-inf) / Cmax / half-life / Vd/F / Tmax: both sexes, human, plasma; for Vd/F: read-out: Vz/F; for Tmax: median (min–max). How it is done:
(§1) This was an open-label, parallel-group, fixed-sequence study in healthy male and female subjects conducted in two parts, Part A and Part B. Part A investigated the effect of CYP3A induction by steady-state rifampin on the single-dose PK of 320 mg zanubrutinib, and Part B investigated the effect of CYP3A inhibition by steady-state itraconazole on the single-dose PK of 20 mg zanubrutinib.
(§2) In Part A, participants received a single oral dose of zanubrutinib (320 mg) in the fasted state on Day 1 and Day 10. Oral rifampin (600 mg/day, Rifampin, VersaPharm Inc., Marietta, GA, USA) was administered once daily in the fasted state on Days 3 through 11. In Part B, participants received a single oral dose of zanubrutinib (20 mg) in the fasted state on Day 1 and Day 6. Oral itraconazole (200 mg/day, Sporanox® capsules, Janssen Pharmaceuticals, Titusville, NJ, USA) was administered once-daily approximately 30 min after completing a meal on Days 3, 4, 5, and 7, and in the fasted state on Day 6.
(§3) Serial blood samples were collected with zanubrutinib alone and when combined with rifampin or itraconazole for the measurement of zanubrutinib plasma concentrations. Plasma samples were collected at predose, 0.5, 1, 1.5, 2, 3, 4, 6, 8, 12, 24, 36, and 48 h postdose on Day 1 and Day 10 in Part A and on Day 1 and Day 6 in Part B.
(§4) Plasma concentrations of zanubrutinib were determined using validated high-performance liquid chromatography coupled with tandem mass spectrometry (HPLC–MS/MS) (Xenobiotic Laboratories, NJ, USA). Protein precipitation was utilized to extract the analyte and internal standard from human plasma containing dipotassium ethylenediaminetetraacetic acid (K2EDTA) as anticoagulant. The analytical method utilized a reversed-phase HPLC column (Supelco Ascentis Express C18 20 × 2.1 mm, 2.7 µm) with a gradient flow of 0.1% formic acid in water (Mobile Phase A) and methanol:acetonitrile (1:1) (Mobile Phase B) at a rate of 0.5 mL/min. The analyte and internal standard were detected using an AB Sciex API-4000 LC–MS/MS system equipped with a positive ESI ion detection.
(§5) The calibration range of zanubrutinib in the assay was 1.00 to 1000 ng/mL using a 50 μL aliquot of plasma, with the lower limit of quantification of 1.00 ng/mL.
(§6) Noncompartmental PK analysis was conducted using the Phoenix® WinNolin® software (Version 6.4). PK parameters were derived for zanubrutinib alone and in combination with rifampin or itraconazole, including area under the plasma concentration–time curve (AUC), maximum observed plasma concentration (Cmax), time of the maximum observed plasma concentration (tmax), apparent terminal elimination half-life (t1/2), apparent total oral clearance (CL/F), and apparent volume of distribution during the terminal elimination phase (Vz/F). Log-transformed area under the curve from time 0 extrapolated to time t (AUC0–t), area under the curve from time 0 extrapolated to infinite time (AUC0–∞), and Cmax of zanubrutinib were analyzed using a mixed model for each part of the study, including treatments as a fixed effect and subject as a random effect. Estimates of geometric mean ratios (GMRs) and the corresponding 90% confidence intervals (CIs) were derived for the comparisons of AUC0–∞, and Cmax as follows:
Part A: zanubrutinib coadministration with rifampin (test) versus zanubrutinib alone (reference),

Data set [2] in a line: Part B: single-dose PK of 20 mg zanubrutinib alone and with steady-state itraconazole (CYP3A inhibition) in healthy subjects. In kind it is in vivo, human. The conditions noted are these: for CL/F / AUC(0-inf) / Cmax / half-life / Vd/F: geometric mean (CV%); for AUC(0-inf) / Cmax / half-life / Vd/F / Tmax: both sexes, human, plasma; for Vd/F: read-out: Vz/F; for Tmax: median (min–max). The method, then:
as §1, §2, §3, §4, §5, §6
Part B: zanubrutinib coadministration with itraconazole (test) versus zanubrutinib alone (reference).

A short description of data set [3]: Safety and tolerability (TEAEs, laboratory, vital signs, QTcF) in healthy subjects, Parts A and B. The class given is in vivo, human. From the text:
Treatment-emergent adverse events (TEAEs) are summarized by part, treatment, National Cancer Institute Common Terminology Criteria for Adverse Events (v4.03) grade, and relationship to study drugs (zanubrutinib, rifampin, and itraconazole). The frequency of TEAEs is summarized by part, treatment, and Medical Dictionary for Regulatory Activities (MedDRA) system organ class (SOC) and preferred term. The summary and frequency TEAE tables are presented for all causalities and for those TEAEs considered related to the study drugs.

For data set [4] the following is noted: cited from earlier work.
For data set [5], the system named is cytochrome P450 3A (CYP3A). Set-up: method as in unpublished data. The conditions noted are these: human liver microsomes; ref unpublished data; cited from earlier work.
For data set [6] the following is noted: cited from earlier work. This is another data set of the same source.
Where [7] appears, read: 320 mg zanubrutinib with 600 mg rifampin vs alone.
Setting [8] is: oral, 320 mg zanubrutinib + 600 mg rifampin QD, Day 10.
Setting [9] is: oral, 320 mg, Asian subjects, Part A Day 1, 320 mg zanubrutinib alone.
The mark [10] stands for this setting: oral, 320 mg, Non-Asian subjects, Part A Day 1, 320 mg zanubrutinib alone.
Setting [11] is: oral, Asian subjects, Part A Day 10, zanubrutinib + rifampicin.
Where [12] appears, read: oral, Non-Asian subjects, Part A Day 10, zanubrutinib + rifampicin.
[13] abbreviates: oral, 320 mg zanubrutinib + 600 mg rifampin QD.
Where [14] appears, read: oral, 320 mg zanubrutinib alone.
[15] abbreviates: zanubrutinib in combination with rifampin versus zanubrutinib alone.
Where [16] appears, read: 20 mg zanubrutinib with 200 mg itraconazole vs alone.
The mark [17] stands for this setting: oral, 20 mg zanubrutinib + 200 mg itraconazole QD, Day 6.
[18] abbreviates: oral, 20 mg, Asian subjects, Part B Day 1, 20 mg zanubrutinib alone.
The mark [19] stands for this setting: oral, 20 mg, Non-Asian subjects, Part B Day 1, 20 mg zanubrutinib alone.
[20] abbreviates: oral, Asian subjects, Part B Day 6, zanubrutinib + itraconazole.
[21] abbreviates: oral, Non-Asian subjects, Part B Day 6, zanubrutinib + itraconazole.
Setting [22] is: oral, 20 mg zanubrutinib + 200 mg itraconazole QD.
The mark [23] stands for this setting: zanubrutinib in combination with itraconazole versus zanubrutinib alone.
[24] abbreviates: patients with B-cell malignancies.

With `C=CC(=O)N1CCC([C@@H]2CCNc3c(C(N)=O)c(-c4ccc(Oc5ccccc5)cc4)nn32)CC1` [zanubrutinib, Zanubrutinib], the CL/F is 1249 L/h and 1249 (43) L/h in data set [1] (320 mg zanubrutinib + 600 mg rifampin QD); 93 L/h and 93 (36) L/h in data set [1] (320 mg zanubrutinib alone); 29 (31) L/h in data set [2] (20 mg zanubrutinib + 200 mg itraconazole QD); 109 (29) L/h in data set [2] (20 mg zanubrutinib alone). Moreover, the “PK parameters, Asian versus non-Asian subjects” value in data set [1] (320 mg zanubrutinib alone on Day 1 and with 600 mg rifampin on Day 10) is “comparable between Asian and non-Asian subjects”. Moreover, in data set [1] (setting [7]), the “decrease of AUC0–∞ on coadministration with rifampin” value is 13.5 fold. Further, the “decrease of Cmax on coadministration with rifampin” value in data set [1] (setting [7]) came out at 12.6 fold. In addition, the AUC(0-inf) – broadly, total exposure, with the tail of the curve extrapolated – in data set [1] (setting [8]) is 261 ng·h/mL; in data set [1] (setting [9]) it was 3460 ng·h/mL; in data set [1] (setting [10]), 3410 ng·h/mL; in data set [1] (setting [11]) it was 213 ng·h/mL; in data set [1] (setting [12]), 293 ng·h/mL; in data set [1] (po, 320 mg, 320 mg zanubrutinib alone, single oral dose, fasted, Day 1), 3520 ng·h/mL. Also, the AUC(0-inf) was 693 ng·h/mL in data set [2] (setting [17]); 174 ng·h/mL in data set [2] (setting [18]); 192 ng·h/mL in data set [2] (setting [19]); 694 ng·h/mL in data set [2] (setting [20]); 693 ng·h/mL in data set [2] (setting [21]); 184 ng·h/mL in data set [2] (po, 20 mg, 20 mg zanubrutinib alone, single oral dose, fasted, Day 1). The Cmax – broadly, the highest concentration seen after dosing – amounted to 42 ng/mL in data set [1] (setting [8]); 532 ng/mL in data set [1] (oral, 320 mg, 320 mg zanubrutinib alone, Day 1); 543 ng/mL in data set [1] (setting [9]); 525 ng/mL in data set [1] (setting [10]); 41 ng/mL in data set [1] (setting [11]); 43 ng/mL in data set [1] (setting [12]). Also, the Cmax in data set [2] (setting [17]) was 122 ng/mL; in data set [2] (oral, 20 mg, 20 mg zanubrutinib alone, Day 1) it was 48 ng/mL; in data set [2] (setting [18]) it was 50 ng/mL; in data set [2] (setting [19]) it was 46 ng/mL; in data set [2] (setting [20]), 124 ng/mL; in data set [2] (setting [21]), 120 ng/mL. Also, the half-life – broadly, the time in which the quantity being followed falls by half – in data set [1] (setting [13]) is 4.8 h; in data set [1] (setting [14]), 6.8 h; in data set [2] (setting [22]), 4.3 h; in data set [2] (oral, 20 mg zanubrutinib alone, terminal phase may not be adequately characterized) it was 2.2 h. In addition, the Vd/F in data set [1] (setting [13]) amounted to 8660 L; in data set [1] (setting [14]), 914 L; in data set [2] (setting [22]), 178 L; in data set [2] (oral, 20 mg zanubrutinib alone), 341 L. Besides, the Tmax (in general, the time at which the peak concentration occurs) in data set [1] (setting [13]) came to 2 h; in data set [1] (setting [14]) it was 2 h; in data set [2] (setting [22]) it was 2 h; in data set [2] (oral, 20 mg zanubrutinib alone), 1.5 h. The “AUC0–∞ geometric ratio of adjusted means (90% CI)” value in data set [1] (setting [15]) was 7.4% and 7.4 (6.0, 9.1) %; in data set [2] (setting [23]) it was 378% and 378 (344, 415) %. Further, the “Cmax geometric ratio of adjusted means (90% CI)” value was 7.9% and 7.9 (6.6, 9.5) % in data set [1] (setting [15]); 257% and 257 (226, 291) % in data set [2] (setting [23]). For the same compound, the “PK, Asian versus non-Asian subjects” value in data set [2] (20 mg zanubrutinib alone on Day 1 and with 200 mg itraconazole on Day 6) was “comparable between Asian and non-Asian subjects”. The “increase of AUC0–∞ on coadministration with itraconazole” value in data set [2] (setting [16]) was 3.8 fold and < 4 fold. In addition, the “increase of Cmax on coadministration with itraconazole” value in data set [2] (setting [16]) worked out at 2.6 fold. Also, the “overall incidence of TEAEs” value in data set [3] (both Part A and Part B) is “less than 30%”. For the same compound, the “severity of TEAEs / SAEs / discontinuation” value in data set [3] (both parts, NCI CTCAE v4.03) was “no subject reported a TEAE higher than Grade 2 or an SAE, and no subject discontinued due to a TEAE”. Further, in data set [3] (during the study), the QTcF result is recorded as “No subject had a QTcF value > 450 ms or an increase from baseline in QTcF of > 60 ms”. In addition, the tolerability entry is on record as “well tolerated” in data set [3] (single doses of 320 mg and 20 mg zanubrutinib alone or with 600 mg rifampin / 200 mg itraconazole, healthy subjects); “generally well tolerated” in data set [4] (patients with B-cell malignancies, total daily doses 40 to 320 mg). In data set [4] (patients with B-cell malignancies, PK generally assessed only for 8 h post-dose), the mean half-life is 2 to 4 h. Moreover, in data set [4] (setting [24]), the “accumulation after repeated dosing” value is listed as “minimal accumulation”. For the same compound, in data set [4] (setting [24]), the “time of Cmax after oral dosing” value is “approximately 2 h”. For the same compound, the “dose dependence of exposure” value in data set [4] (total daily doses of 40–320 mg) is given as “increased in a dose-proportional manner”. Moreover, in data set [5], the “pathway of oxidative metabolism” value is reported as “largely mediated through the cytochrome P450 3A (CYP3A) pathway”.
As for `C=CC(=O)N1CCC[C@@H](n2nc(-c3ccc(Oc4ccccc4)cc3)c3c(N)ncnc32)C1` [ibrutinib], the “increase in AUC with ketoconazole” value in data set [6] is 24 fold.
For the compound `CC#CC(=O)N1CCC[C@H]1c1nc(-c2ccc(C(=O)Nc3ccccn3)cc2)c2c(N)nccn12` [acalabrutinib], in data set [6], the “decrease in AUC with rifampin” value is given as 77% and the “increase in AUC with itraconazole” value is 5.1 fold.
